Experimental data from patent US9421237B2, “Tripeptide boronic acid or boronic ester, preparative method and use thereof” (PEKING UNIVERSITY, priority 2009, dated 2016).
Values belong to the molecule of their own block, whether it stands above or below them.

Key:
[1] = target: T1, 20S proteasome extracted from rat liver, chymotryptic-like (CT-L) activity (Rattus norvegicus, UniProt P18421+P28075); experiment: Proteasome inhibition, chymotryptic-like (CT-L) activity, fluorescent peptide Suc-leu-leu-Val-Tyr-AMC; format: biochemical; conditions: rat liver 20S proteasome, 37° C., 1 h
T1 construct: 20S proteasome extracted from rat liver; from tissue; host or cells: rat liver
Method: (§1) The activities of the proteasome were assayed using fluorescent peptides: Suc-leu-leu-Val-Tyr-AMC (Suc represents succinyl, and AMC represents 7-amino-4-methylcoumarin, purchased from SIGMA) for determining chymotryptic-like (CT-L) activity; Z-Ala-Arg-Arg-AMC (Z represents benzyloxycarbonyl, purchased from Calbiochem) for determining trypsin-like (TL) activity; and Z-leu-leu-Glu-βNA (βNA represents β-naphtylamide, purchased from SIGMA) for determining peptidyl-glutamyl-peptide-hydrolyzing (PGPH) enzyme activity.
(§2) Method for the aforesaid activity assays is as follows: 1 μg of 20S proteasome extracted from rat liver was incubated with a 100 μL solution containing various concentrations of compounds, 50 μM fluorescent peptides and 20 mM Tris-HCl at 37° C. for 1 h, respectively. The fluorescence released from AMC and RNA reagents was measured by a spectrofluorimeter Fluostar OPTIMA and BMG Germany at excitation/emission wavelengths of 380/440 nm and 335/410 nm, respectively. 0.1% DMSO was used as a solvent control. Compared with the fluorescence of solvent control, an inhibition rate was calculated.

[2] = tested on: KB human nasopharyngeal carcinoma cell; experiment: Preliminary anti-tumor screening in vitro, SRB method; format: cell-based; design: key to Test results: +++: inhibition rates at three doses are greater than 50%; ++: inhibition rates at two doses are greater than 50%; +: inhibition rate at one dose is greater than 50%; conditions: for inhibition at 0.05 µM / inhibition at 0.5 µM / inhibition at 5 µM: Homo sapiens, read-out: Inhibition rate %; for Test results: number of doses with inhibition > 50%
Method: (§3) The test methods used in this test example is the routine method for anti-tumor activities test in pharmaceutical area, for example, referring to the following reference: (J. Immunol Method, 1983, 65, 55).
(§4) Test models: A: MTT method (HL-60 human leukemia); B: SRB method (BGC-823 human gastric cancer); C: SRB method (Bel-7402 human hepatocarcinoma); D: SRB method (KB human nasopharyngeal carcinoma).
(§5) The aforesaid tests were carried out with the compounds of Examples 1-26 in the present invention, test results are shown in Tables 2-5.

[3] = tested on: BGC-823 human gastric cancer cell; experiment: as above; format: cell-based; design: key to Test results: +++: inhibition rates at three doses are greater than 50%; ++: inhibition rates at two doses are greater than 50%; +: inhibition rate at one dose is greater than 50%; conditions: BGC-823, SRB; for Test results: number of doses with inhibition > 50%; for inhibition at 0.05 µM / inhibition at 0.5 µM / inhibition at 5 µM: Homo sapiens, read-out: Inhibition rate %
Method: as §3, §4, §5

[4] = tested on: Bel-7402 human hepatocarcinoma cell; experiment: as above; format: cell-based; design: key to Test results: +++: inhibition rates at three doses are greater than 50%; ++: inhibition rates at two doses are greater than 50%; +: inhibition rate at one dose is greater than 50%; conditions: Bel-7402, SRB; for Test results: number of doses with inhibition > 50%; for inhibition at 0.05 µM / inhibition at 0.5 µM / inhibition at 5 µM: Homo sapiens, read-out: Inhibition rate %
Method: as §3, §4, §5

[5] = tested on: HL-60 human leukemia cell; experiment: Preliminary anti-tumor screening in vitro, MTT method; format: cell-based; design: key to Test results: +++: inhibition rates at three doses are greater than 50%; ++: inhibition rates at two doses are greater than 50%; +: inhibition rate at one dose is greater than 50%; conditions: HL-60, MTT; for Test results: number of doses with inhibition > 50%; for inhibition at 0.05 µM / inhibition at 0.5 µM / inhibition at 5 µM: Homo sapiens, read-out: Inhibition rate %
Method: as §3, §4, §5

[6] = target: T2, 20S proteasome extracted from rat liver, trypsin-like (TL) activity (Rattus norvegicus, UniProt P40112+Q9JHW0); experiment: Proteasome inhibition, trypsin-like (TL) activity, fluorescent peptide Z-Ala-Arg-Arg-AMC; format: biochemical; conditions: rat liver 20S proteasome, 37° C., 1 h; read-out: T-L (IC50)
T2 construct: 20S proteasome extracted from rat liver; from tissue; host or cells: rat liver
Method: as §1
as §2, with “calculated. Said assays used anticancer drug bortezomib (leukemia drug), namely PS341 as compound for positive control.” for “calculated.”

murine H22 cells = experiment: In vivo anti-tumor activity, H22 tumor in ICR mice, oral administration; conditions: 1 mg/kg orally once per day for 10 days
Method: Animal: ICR mice, half male and half female (18-22 g), provided by Laboratory Animal Science Department of Peking Medical University.
Tumor cell strain: murine H22 cells were provided by cell bank of pharmacological group of the State Key Laboratory of Natural and Biomimetic Drugs.
Method: Murine tumor cells were taken to be treated, and diluted to 5×10^6 cells/ml after treatment. The diluted tumor cells solution was inoculated to the left forelimb oxter of the mice with 0.2 ml/mouse under aseptic condition. 24 h after inoculation, the mice were divided into groups and orally administered once per day to the mice in each group for 10 days. At the 12th day, the tumors were peeled off and weighed, and the average weight of the tumor, standard deviation (SD) and p-value of each group were calculated.

[7] = target: T3, 20S proteasome extracted from rat liver, peptidyl-glutamyl-peptide-hydrolyzing (PGPH) enzyme activity (Rattus norvegicus, UniProt P28073+Q9JHW0); experiment: Proteasome inhibition, PGPH activity, fluorescent peptide Z-leu-leu-Glu-βNA; format: biochemical; conditions: rat liver 20S proteasome, 37° C., 1 h
T3 construct: 20S proteasome extracted from rat liver; from tissue; host or cells: rat liver
Method: as §1
as §2, with “calculated. Said assays used anticancer drug bortezomib (leukemia drug), namely PS341 as compound for positive control.” for “calculated.”

Structure (SMILES): CC(C)C[C@H](NC(=O)[C@H](Cc1ccc2ccccc2c1)NC(=O)[C@H](Cc1ccccc1)NC(=O)c1cnccn1)B1OC2CC3C[C@@H](C3(C)C)[C@]2(C)O1 (stereo partly drawn) [Compound 5g, Pinanediol N-pyrazineformyl-L-phenylalanyl-L-naphthylalanyl-L-leucine Borate]
IC50 [1]: 0.443 ± 0.081 nM
inhibition at 0.05 µM [2]: 62.8%
inhibition at 0.5 µM [2]: 95.5%
inhibition at 5 µM [2]: 96.5%
Test results [2]: +++
Test results [3]: +++
inhibition at 0.05 µM [3]: 77.6%
inhibition at 0.5 µM [3]: 95.4%
inhibition at 5 µM [3]: 95.9%
Test results [4]: ++
inhibition at 0.05 µM [4]: 46.7%
inhibition at 0.5 µM [4]: 77.7%
inhibition at 5 µM [4]: 94.7%
Test results [5]: ++
inhibition at 0.05 µM [5]: -5.06%
inhibition at 0.5 µM [5]: 87.5%
inhibition at 5 µM [5]: 88.3%
melting point: 97 to 98 °C
IC50 [6]: > 20 nM

Structure (SMILES): CC(C)C[C@H](NC(=O)[C@H](Cc1ccccc1)NC(=O)[C@H](Cc1ccccc1)NC(=O)c1cnccn1)B1OC2CC3C[C@@H](C3(C)C)[C@]2(C)O1 (stereo partly drawn) [Compound 5a, Pinanediol N-pyrazineformyl-L-phenylalanyl-L-phenylalanyl-L-leucine Borate]
IC50 [1]: 0.402 ± 0.024 nM
IC50 [7]: 8.33 ± 2.49 nM
melting point: 78 to 80 °C
IC50 [6]: > 20 nM

Structure (SMILES): CC(C)C[C@H](NC(=O)[C@H](Cc1ccc2ccccc2c1)NC(=O)[C@H](Cc1ccc2ccccc2c1)NC(=O)c1cnccn1)B1OC2CC3C[C@@H](C3(C)C)[C@]2(C)O1 (stereo partly drawn) [Compound 5h, Pinanediol N-pyrazineformyl-L-naphthylalanyl-L-naphthylalanyl-L-leucine Borate]
IC50 [1]: 0.495 ± 0.092 nM
inhibition at 0.05 µM [2]: 20.8%
inhibition at 0.5 µM [2]: 91.2%
inhibition at 5 µM [2]: 94.6%
Test results [2]: ++
Test results [3]: +++
inhibition at 0.05 µM [3]: 55%
inhibition at 0.5 µM [3]: 89%
inhibition at 5 µM [3]: 95.4%
Test results [4]: ++
inhibition at 0.05 µM [4]: 13.1%
inhibition at 0.5 µM [4]: 51.7%
inhibition at 5 µM [4]: 91%
Test results [5]: ++
inhibition at 0.05 µM [5]: 11.4%
inhibition at 0.5 µM [5]: 85.5%
inhibition at 5 µM [5]: 88.3%
melting point: 136 to 137 °C
IC50 [6]: > 20 nM

Structure (SMILES): CC(C)C[C@H](NC(=O)[C@H](CC1=CNC2C=CC=CC12)NC(=O)[C@H](Cc1ccccc1)NC(=O)c1cnccn1)B1OC2CC3C[C@@H](C3(C)C)[C@]2(C)O1 (stereo partly drawn) [Compound 5j]
IC50 [1]: > 20 nM
IC50 [7]: > 20 nM
IC50 [6]: > 20 nM

Structure (SMILES): CC(C)C[C@H](NC(=O)[C@H](Cc1ccccc1)NC(=O)[C@H](CC(C)C)NC(=O)c1cnccn1)B1OC2CC3C[C@@H](C3(C)C)[C@]2(C)O1 (stereo partly drawn) [Compound 5e, Pinanediol N-pyrazineformyl-L-leucyl-L-phenylalanyl-L-leucine Borate]
IC50 [1]: 0.431 ± 0.086 nM
IC50 [7]: 3.405 ± 0.021 nM
melting point: 63 to 65 °C
IC50 [6]: > 20 nM

Structure (SMILES): CC(C)C[C@H](NC(=O)[C@H](CC(C)C)NC(=O)[C@H](Cc1ccc2ccccc2c1)NC(=O)c1cnccn1)B1OC2CC3C[C@@H](C3(C)C)[C@]2(C)O1 (stereo partly drawn) [Compound 5m, Pinanediol N-pyrazineformyl-L-naphthylalanyl-L-leucyl-L-leucine Borate]
IC50 [1]: 0.345 ± 0.106 nM
inhibition at 0.05 µM [2]: 8.59%
inhibition at 0.5 µM [2]: 85.6%
inhibition at 5 µM [2]: 96.2%
Test results [2]: ++
Test results [3]: ++
inhibition at 0.05 µM [3]: 46%
inhibition at 0.5 µM [3]: 84.5%
inhibition at 5 µM [3]: 97.2%
Test results [4]: ++
inhibition at 0.05 µM [4]: 6.49%
inhibition at 0.5 µM [4]: 52.6%
inhibition at 5 µM [4]: 95.7%
Test results [5]: ++
inhibition at 0.05 µM [5]: 11.2%
inhibition at 0.5 µM [5]: 82.7%
inhibition at 5 µM [5]: 87.9%
melting point: 99 to 100 °C
IC50 [6]: > 20 nM

Now from value to molecule, other results behind:

IC50 [6]: > 20 nM
Structure (SMILES): CC(C)C[C@H](NC(=O)[C@H](Cc1ccccc1)NC(=O)c1cnccn1)B(O)O [PS341, Bortezomib, reference compound]
Body weight (g) (X ± SD) (murine H22 cells; ICR mice with H22): 0.65 ± 2.07 g
Inhibition rate (%) (murine H22 cells; tumors weighed at 12th day): 62.05%
Tumor weight (g) (X ± SD) (murine H22 cells; tumors weighed at 12th day): 0.47 ± 0.20 g

IC50 [1]: 0.19 ± 0.017 nM
IC50 [7]: 5.14 ± 2.17 nM
melting point: 113 to 116 °C
IC50 [6]: > 20 nM
Structure (SMILES): CC(C)C[C@H](NC(=O)[C@H](Cc1ccccc1)NC(=O)[C@H](CC(C)C)NC(=O)c1cnccn1)B(O)O [Compound 6e, N-pyrazineformyl-L-leucyl-L-phenylalanyl-L-leucine Boronic Acid]

IC50 [1]: > 20 nM
IC50 [7]: > 20 nM
IC50 [6]: > 20 nM
Structure (SMILES): CC(C)C[C@H](NC(=O)[C@H](Cc1c[nH]c2ccccc12)NC(=O)[C@H](Cc1ccccc1)NC(=O)c1cnccn1)B(O)O [Compound 6j, N-pyrazineformyl-L-phenylalanyl-L-tryptophyl-L-leucine Boronic Acid]

IC50 [1]: > 20 nM
IC50 [7]: > 20 nM
IC50 [6]: > 20 nM
Structure (SMILES): CC(C)C[C@H](NC(=O)[C@H](CC(C)C)NC(=O)[C@H](CC(C)C)NC(=O)c1cnccn1)B(O)O [Compound 6l, N-pyrazineformyl-L-leucyl-L-leucyl-L-leucine Boronic Acid]

IC50 [1]: 0.173 ± 0.033 nM
IC50 [7]: 5.66 ± 0.839 nM
melting point: 116 to 118 °C
IC50 [6]: > 20 nM
Structure (SMILES): CC(C)C[C@H](NC(=O)[C@H](CC(C)C)NC(=O)[C@H](Cc1ccccc1)NC(=O)c1cnccn1)B(O)O [Compound 6k, N-pyrazineformyl-L-phenylalanyl-L-leucyl-L-leucine Boronic Acid]

IC50 [1]: 0.546 ± 0.077 nM
IC50 [7]: 10.9 ± 3.21 nM
melting point: 112 to 114 °C
IC50 [6]: > 20 nM
Structure (SMILES): CC(C)C[C@H](NC(=O)[C@H](Cc1ccccc1)NC(=O)[C@H](Cc1ccccc1)NC(=O)c1cnccn1)B(O)O [Compound 6a, N-pyrazineformyl-L-phenylalanyl-L-phenylalanyl-L-leucine Boronic Acid]

IC50 [1]: > 20 nM
IC50 [7]: > 20 nM
IC50 [6]: > 20 nM
Structure (SMILES): CC(C)C[C@H](NC(=O)[C@H](Cc1ccccc1)NC(=O)[C@H](Cc1c[nH]c2ccccc12)NC(=O)c1cnccn1)B(O)O [Compound 6i, N-pyrazineformyl-L-tryptophyl-L-phenylalanyl-L-leucine Boronic Acid]
